Patent publication US8378115B2, “Monomethine dyes” (Thermo Fisher Scientific (Milwaukee) LLC, priority 2007, dated 2013)

Key:
[1] = test system: 40mer dsDNA; experiment: Fluorescence enhancement of dye with 40mer dsDNA; assay type: binding
[2] = test system: λDNA; experiment: Fluorescence enhancement of dye with λDNA; assay type: binding
Procedure: (§1) Stock solutions (8 mM) of each dye were prepared by dissolving each compound in dimethylsulfoxide (DMSO). Stock dye solutions were diluted to a desired concentration in tris-EDTA (TE) buffer (10 mM Tris, 1 mM EDTA, pH 8.0) immediately prior to use.
(§2) Stock solutions of λDNA and 40mer synthetic oligonucleotides (dsDNA and ssDNA), each at a concentration of 40 μM, were prepared in TE buffer. All DNA concentrations described are in base pairs of nucleotides. The DNA stock solutions were diluted to a desired concentration in TE buffer before being mixed with diluted dye solutions.
(§3) Fluorescence enhancement measurements of each dye were obtained by incubating dyes with λDNA, 40mer dsDNA, or 40mer ssDNA at a final concentration of 0.8 μM dye and 3.2 μM DNA for one minute. Fluorescence scans of the samples were performed with excitation wavelengths corresponding to the absorption maxima of the dyes. The resulting fluorescence intensities were compared to fluorescence intensities of Thiazole Orange (TO) and a compound equivalent to SYBR Green without the side chain (V02-06101), shown below,
(§4) [drawing 15] binding to λDNA, 40mer dsDNA, or 40mer ssDNA at a final concentration of 0.8 μM TO and 3.2 μM DNA for one minute, the same as for the tested dyes. The discrimination ratio between dsDNA and ssDNA was calculated by comparing the fluorescence intensities.

[3] = Absorption spectra of dye alone; assay type: physicochemical; conditions: for ε: in M-1·cm-1 (unit assumed)
Procedure: as §1
[…] […] Optical densities were determined at the absorbance maxima and the extinction coefficients were calculated using Beer's law.

[4] = test system: 40mer dsDNA; experiment: Fluorescence enhancement of dye with 40mer dsDNA; assay type: binding; remark: listed apart in the source
Procedure: as §1, §2, §3, §4

[5] = 0.8 μM dye, 3.2 μM DNA, one minute

λex ([3]; Ethanol): 520 nm
ε ([3]; Ethanol): 58,000
λex ([3]; TE Buffer, 8 μM dye): 499 nm
ε ([3]; TE Buffer, 8 μM dye): 20,444
Structure (SMILES): CCN(CC)c1ccc2c(/C=C3\Oc4ccccc4N3CC)cc(-c3ccccc3)[o+]c2c1 [Dye V02-06188]
binding preference dsDNA over ssRNA [1]: slight preference for binding to dsDNA over binding to ssRNA
Fluorescence relative to TO [2, 5]: 0.6
Fluorescence λ DNA/ssDNA [2, 5]: 1.5
Ratio λ DNA/ss ([2]; fluorescence λ DNA vs ss-DNA): 2
Relative Fluorescent Intensity ([2]; λ DNA, TO = 1.0): 0.6
Relative Fluorescent Intensity ([4]; 40-mer ds-DNA, TO = 1.0): 0.6
Ratio ds/ss ([4]; fluorescence 40-mer ds-DNA vs ss-DNA): 1.5
